A short description of this series: gradient 5% acetonitrile 3 min, to 50% in 2 min, to 85% in 15 min, held 3 min, 100 µL/min. The note with it: column: Zorbax Extend-C18 2.1 x 50 mm; eluents: water / acetonitrile, 0.1% formic acid. The method, boiled down: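 A Zorbax Extend-C18 column (2.1 × 50 mm, 1.8 μm) run at 100 μL/min with water and acetonitrile, both containing 0.1% formic acid, separated mixtures of ~100 pure standards. The HPLC was coupled to a quadrupole time-of-flight mass spectrometer operated in positive and negative ionization mode, with dead and dwell volumes of 40 μL and 900 μL. Each retention time was taken from a computationally picked adduct peak that was then manually inspected.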
On to `CS(=O)(=O)c1cccc(CNc2nc(Nc3ccc4c(c3)CCC(=O)N4)ncc2C(F)(F)F)c1`, for which the RP-LC retention time was 737 s.
In the case of `CCCn1c(CCNC(=O)c2ccc(OC)cc2)nc2cccnc21`, the RP-LC retention time was 662 s.
The compound `Cc1nnc2cc(N3CCN(C(=O)Nc4cccc(F)c4)CC3)cnn12` returned an RP-LC retention time of 624 s.
`Cc1cc(C)c(S(=O)(=O)N2CCC3(CC2)c2nccn2CCN3C)c(C)c1`: the RP-LC retention time amounted to 684 s.
Then `CC(C)c1nc(CNC(=O)c2ccccc2)no1`, with 707 s.
For the compound `Cc1nc(-c2ccc(-c3noc(CNC(=O)Cc4ccc(Cl)cc4)n3)cc2)cs1`, the RP-LC retention time turned out to be 990 s.
For `O=C(NCc1ccco1)N1CCOCC1`, the RP-LC retention time was 568 s.
Consider `CN(C(=O)Cn1cccc1-c1nc(-c2ccccc2)no1)c1ccccc1`, for which the RP-LC retention time worked out at 1100 s.
Next, `O=C(Nc1ccc(Br)cc1F)N1CCc2nc(-c3ccc(F)cc3)ncc2C1`: 1050 s.
Then `O=C(Nc1ccc(Cl)cc1)C1CCCN(c2nc3ccccc3nc2C(F)(F)F)C1` (stereo not given), with 1290 s; and `CC(C)C(=O)Nc1ccc(CCc2nc3ccc(C(=O)NC4CCCC4)cc3[nH]2)cc1`, with 650 s; and `COC(=O)c1c(NC(=O)c2cc3ccccc3c(=O)o2)sc2c1CCCC2`, with 748 s.
Next, `COc1ccc(NC(=O)Nc2cccc(-c3ccc(N4CCCCC4)nn3)c2)c(OC)c1`: 719 s.
As for `Cc1ccc2c(=O)c3cccc(CC(=O)O)c3oc2c1C`, the RP-LC retention time amounted to 860 s.
For `O=C(c1cnccn1)N1CCCCC1c1nc(-c2ccncc2)no1` (stereo not given), the RP-LC retention time was 661 s.
Then `COc1ccc(C2(C(=O)N3CC(N(Cc4ccncc4)S(C)(=O)=O)C3)CC2)cc1`, with 613 s.
In the case of `CC(C)Cn1nc2n(c1=O)CCN(S(=O)(=O)c1ccccc1C(F)(F)F)CC2`, the RP-LC retention time was determined as 847 s.
Next, `O=C(CSC1CCc2ccccc2NC1=O)Nc1cccc(Br)c1` (stereo not given): 872 s.
The compound `O=C(CSc1cccc2cccnc12)NCCc1ccc(Cl)cc1` had an RP-LC retention time of 786 s.
Next, `CC(C)NC(=O)c1cc2c(s1)N(CC1CC1)CCCC2`: 1080 s.
Then `O=C(Nc1ccc(F)cc1)C1CCCN(c2ncnc3c2nc2n3CCCCC2)C1` (stereo not given), with 803 s; and `CN(CC1CCOC1)C(=O)c1ccc(F)c(Cl)c1` (stereo not given), with 724 s.
Then `CCCN1C(=O)CCc2cc(NS(=O)(=O)c3ccccc3C(=O)OC)ccc21`, with 845 s; and `O=C(CN1CC=C(c2cnn(-c3ccccc3)c2)CC1)NC1CCCCCC1`, with 702 s.
In turn, `Cc1cc(N2CCC(NC(=O)Nc3cc(F)cc(F)c3)C2=O)ccc1F` (stereo not given) returned an RP-LC retention time of 931 s.
Next, `Cc1nnc2c(=O)n(CC(=O)NCc3ccc(F)cc3)c3cccnc3n12`: 656 s; `CCn1cnc2ccc(-c3noc(-c4ccc(Cl)cc4)n3)cc21`: 863 s.
`CC1CCN(c2nc(C(=O)N3CCN(c4ccccc4)CC3)nc3c2cnn3C)CC1` displayed an RP-LC retention time of 956 s.
Next, `Cc1sc(C)c(S(=O)(=O)N2CCN(c3ccccc3F)CC2)c1-c1cc(C(F)(F)F)on1`: 1330 s; `Cc1ccc(Nc2c(-c3cccc(Cl)c3)nc3cc(C)ccn23)cc1`: 890 s.
Next, `O=C(c1ccc2cc[nH]c2c1)N1CCC(c2nc(C3CC3)n[nH]2)CC1`: 546 s.
In the case of `Cc1cccc(-c2noc(-c3ccc(N4CCN(C)CC4)nc3)n2)c1`, the RP-LC retention time was 708 s.
Then `Cc1ccc(Nc2c(-c3cccc(Br)c3)nc3c(C)cccn23)cc1`, with 843 s.
Next, `CCCOc1nc2ccccc2nc1N1CCCC(C(=O)NC2CCCCC2)C1` (stereo not given): 1260 s; `COc1ccc(-c2cn3nc(N4CCCC(C(=O)N5CCCC5)C4)sc3n2)cc1` (stereo not given): 981 s.
In the case of `COCCCNS(=O)(=O)c1cc(-c2[nH]ncc2C(=O)N2CCCCC2)oc1C`, the RP-LC retention time is 646 s.
Then `CNC(=O)c1cnn(-c2ccc(-c3nc(C(C)C)no3)cn2)c1C`, with 780 s.
Then `COc1ccc(OC)c(S(=O)(=O)N2CCC(c3cc(-c4cccc(C)c4)n[nH]3)CC2)c1`, with 960 s; and `CCCCN1CCN(C(=O)c2cnc(-c3ccccc3)nc2-c2ccncc2)CC1`, with 638 s.
Compound `CCCN1C(=O)c2c(C(=O)NCCc3ccccc3)ncn2CC1(C)C(=O)NC1CCCC1` (stereo not given) displayed an RP-LC retention time of 860 s.
`COc1ccccc1C(=O)N1CCCC1COc1ccc(C(=O)N2CCCC2)cc1` (stereo not given) showed an RP-LC retention time of 784 s.
Next, `CCc1cccc(NC(=O)CN2C(=O)NC3(CCCCC3)C2=O)c1`: 805 s; `CC1CCN(S(=O)(=O)c2ccc3nn(Cc4cccc(C#N)c4)c(=O)n3c2)CC1`: 768 s.
Then `O=C(C1CCCCC1)N1CCN(c2nnc3ccc(C(F)(F)F)cn23)CC1`, with 817 s; and `Cc1cccc(CN2C[C@@H]3C(=O)N(CCc4ccccc4)C(=O)[C@@H]3C2)c1`, with 777 s; and `Cc1ccc(CNC(=O)C2CCCN(S(=O)(=O)c3c[nH]c(C(=O)N4CCCCCC4)c3)C2)cc1` (stereo not given), with 883 s.
The compound `CCCCn1nc2ccc(S(=O)(=O)N3CCCCC3)cn2c1=O` gave an RP-LC retention time of 887 s.
`O=C1CC[C@]2(C(=O)N3CCCCC3)CCCC[C@H]2N1CCc1ccccc1` returned an RP-LC retention time of 878 s.
As for `CCSc1ccccc1C(=O)NCC1CCN(S(=O)(=O)C2CC2)CC1`, the RP-LC retention time is 725 s.
`Cc1cc2c(cc1S(=O)(=O)N1CCCC1C(=O)Nc1ccc(C(C)C)cc1)OCC(=O)N2` (stereo not given) gave an RP-LC retention time of 902 s.
Next, `Cc1nc2cc3c(cc2n1CC(=O)Nc1ccc2c(c1)OCCCO2)OCCO3`: 618 s; `COc1ccc(-c2noc(C3CCCN3C(=O)c3ccc(NC(C)=O)cc3)n2)cc1` (stereo not given): 752 s; `COc1ccc(-n2nc(SCC(=O)Nc3ccc(Cl)cc3)ccc2=O)cc1`: 629 s.
As to `Cc1cc(C)c(NC(=O)Cn2c(C)nc3onc(C)c3c2=O)c(C)c1`, the RP-LC retention time came to 814 s.
Compound `CC(C)CC(=O)Nc1ccc(N2CCN(CC(=O)N3CCCC3)CC2)cc1C(=O)O` came in with an RP-LC retention time of 614 s.
For the compound `Cc1nc2cc(-c3noc(Cc4ccc(Cl)cc4)n3)ccc2o1`, the RP-LC retention time amounted to 1070 s.
Then `COc1ccc(-c2noc(Cn3ccn(-c4cc(C)cc(C)c4)c(=O)c3=O)n2)cc1`, with 870 s.
As for `CC(C)n1cc(S(=O)(=O)Nc2ccc(Cl)cc2F)c2cccnc21`, the RP-LC retention time amounted to 950 s.
Then `O=C(Cn1ccn2nc(-c3ccccc3)c(CO)c2c1=O)Nc1ccc(F)cc1F`, with 781 s; and `COC(=O)c1ccc(NC(=O)Cn2c(C)nc3c(sc4nc(-c5ccccc5)ccc43)c2=O)cc1`, with 1020 s; and `Cc1oc(-c2[nH]ncc2C(=O)N(C)C)cc1S(=O)(=O)N1CCN(CC(C)C)CC1`, with 580 s.
Compound `CCC(=O)Nc1cc2c(cc1N1CCC(C)CC1)n(C)c(=O)c(=O)n2C` gave an RP-LC retention time of 773 s.
Then `CCOC(=O)c1cc2ccsc2n1CC(=O)NCCN1CCN(C)CC1`, with 600 s.
Then `CCOC(=O)c1nc(NCCCOC)c2c(-c3ccc(F)cc3)noc2n1`, with 944 s; and `Cc1csc(COc2ccc(C(=O)Nc3ccccc3OC(F)(F)F)cc2)n1`, with 933 s.
`CCS(=O)(=O)Nc1ccc(C2(C(=O)NCc3cccs3)CCCCC2)cc1` came in with an RP-LC retention time of 913 s.
Compound `COc1ccccc1-c1nc2nccc(-c3ccc(Cl)cc3)n2n1` registered an RP-LC retention time of 956 s.
The compound `O=C(NCCc1cccs1)C1CCN(Cc2cc3ccccc3n2Cc2cccc(Cl)c2)CC1` yielded an RP-LC retention time of 833 s.
In turn, `CCCNC(=O)C1CCN(c2ccc(SCC(=O)Nc3cc(F)ccc3Cl)nn2)CC1` came in with an RP-LC retention time of 724 s.
Next, `COc1ccccc1CN1C[C@@H]2C(=O)N(CCCN3CCCC3=O)C(=O)[C@@H]2C1`: 586 s; `Cc1ccc(NS(=O)(=O)c2cc(-c3[nH]ncc3C(=O)N3CCOCC3)oc2C)cc1`: 695 s.
Regarding `Cc1cccc2nnc(N3CCC(C(=O)Nc4ccccc4F)CC3)n12`, the RP-LC retention time is 677 s.
Then `Cc1cc(C)n2nc(SCC(=O)Nc3ccc(C)c(C)c3)nc2n1`, with 764 s.
Then `CCC1Oc2ccc(C)cc2N(CC(=O)NCCCN2CC(C)CC(C)C2)C1=O` (stereo not given), with 708 s; and `COc1ccc(CCN2C(=O)CC(Sc3ccccc3C(=O)O)C2=O)cc1OC` (stereo not given), with 703 s; and `N#Cc1cccc(NC(=O)C2CCN(S(=O)(=O)c3cc(C(=O)N4CCCC4)cs3)CC2)c1`, with 995 s.
Next, `CCOC(=O)C1CCN(C(=O)C2CN(C(=O)c3ccncc3)CC23CCCCC3)CC1` (stereo not given): 703 s.
On to `COC(=O)c1cccc(C(=O)Nc2ccc(C)c(Cl)c2)n1`, for which the RP-LC retention time is 991 s.
With `CCN1C(=O)CCc2cc(NC(=O)c3cncc(Br)c3)ccc21`, the RP-LC retention time was 739 s.
Then `CCCCNC(=O)Cc1c(C)nn(-c2nc(-c3ccc(Cl)cc3)cs2)c1C`, with 1180 s.
